{"source": "patent US9326513B2", "about": "“Fungicidal compositions” (Syngenta Participations AG, priority 2011, dated 2016)", "type_in_all_cases": "cell-based", "key": {"[1]": {"system": "Monographella nivalis (syn. Microdochium nivale, Fusarium nivale)", "experiment": "Monographella nivalis (snow mould, foot rot of cereals), PDB microtiter plate, visual after 72 hrs"}, "Septoria tritici": {"system": "Septoria tritici", "experiment": "Septoria tritici (leaf blotch), PDB microtiter plate, visual after 72 hrs", "conditions": "single compound"}, "Botrytis cinerea": {"system": "Botrytis cinerea", "experiment": "Botrytis cinerea (gray mould), PDB microtiter plate, visual after 72 hrs"}, "[2]": {"system": "Mycosphaerella arachidis (y. Cercospora arachidicola)", "experiment": "Mycosphaerella arachidis (brown leaf spot of groundnut), PDB microtiter plate, visual after 5-6 days", "conditions": "single compound"}, "[3]": {"conditions": "Botrytis cinerea, alone, rate 0.25 ppm"}, "[4]": {"conditions": "Monographella nivalis, applied alone, rate 0.3125 ppm"}, "[5]": {"conditions": "Monographella nivalis, applied alone, rate 0.625 ppm"}, "[6]": {"conditions": "Monographella nivalis, applied alone, rate 2.5 ppm"}, "[7]": {"conditions": "Botrytis cinerea, alone, rate 1.25 ppm"}, "[8]": {"conditions": "Botrytis cinerea, alone, rate 2.5 ppm, read-out: Activity (%)"}, "[9]": {"conditions": "applied alone, rate 0.15625 ppm"}}, "data": [{"compound": "Cc1nn(C)c(F)c1C(=O)Nc1ccccc1C(C)CC(C)C", "note": "(stereo not shown) [Penflufen]", "values": [{"measurement": "Activity (%)", "setting": "[1]; applied alone, 0.5 ppm", "value": 0, "unit": "%"}, {"measurement": "Activity (%)", "setting": "[1]; applied alone, 1 ppm", "value": 20, "unit": "%"}, {"measurement": "Activity (%)", "setting": "[1]; applied alone, rate 0.5 ppm", "value": 0, "unit": "%"}, {"measurement": "Activity (%)", "setting": "[1]; applied alone, rate 1 ppm", "value": 20, "unit": "%"}, {"measurement": "Activity (%)", "setting": "Septoria tritici; 0.125 ppm", "value": 0, "unit": "%"}, {"measurement": "Activity (%)", "setting": "Septoria tritici; 0.25 ppm", "value": 20, "unit": "%"}, {"measurement": "Activity (%)", "setting": "Septoria tritici; 0.5 ppm", "value": 70, "unit": "%"}]}, {"compound": "CO/C=C(/C(=O)OC)c1ccccc1COc1cccc(C(F)(F)F)n1", "note": "[Picoxystrobin]", "values": [{"measurement": "Activity (%)", "setting": "Botrytis cinerea; alone, rate 0.25 ppm", "value": 50, "unit": "%"}, {"measurement": "Activity (%)", "setting": "Botrytis cinerea; alone, rate 0.5 ppm", "value": 50, "unit": "%"}, {"measurement": "Activity (%)", "setting": "Botrytis cinerea; alone, rate 1 ppm", "value": 50, "unit": "%"}, {"measurement": "Activity (%)", "setting": "Botrytis cinerea; alone, rate 2 ppm", "value": 50, "unit": "%"}, {"measurement": "Activity (%)", "setting": "Septoria tritici; 0.015625 ppm", "value": 70, "unit": "%"}, {"measurement": "Activity (%)", "setting": "Septoria tritici; 0.03125 ppm", "value": 90, "unit": "%"}]}, {"compound": "CCCC1COC(Cn2cncn2)(c2ccc(Cl)cc2Cl)O1", "note": "(stereo not shown) [Propiconazole]", "values": [{"measurement": "inhibition at 0.0625 ppm", "setting": "[1]; Monographella nivalis, applied alone, 0.0625 ppm", "value": 0, "unit": "%"}, {"measurement": "inhibition at 0.125 ppm", "setting": "[1]; Monographella nivalis, applied alone, 0.125 ppm", "value": 0, "unit": "%"}, {"measurement": "inhibition at 0.25 ppm", "setting": "[1]; Monographella nivalis, applied alone, 0.25 ppm", "value": 0, "unit": "%"}, {"measurement": "inhibition at 0.5 ppm", "setting": "[1]; Monographella nivalis, applied alone, 0.5 ppm", "value": 0, "unit": "%"}, {"measurement": "inhibition at 1 ppm", "setting": "[1]; Monographella nivalis, applied alone, 1 ppm", "value": 20, "unit": "%"}, {"measurement": "inhibition at 0.015625 ppm", "setting": "[1]; Monographella nivalis, applied alone, rate 0.015625 ppm", "value": 0, "unit": "%"}, {"measurement": "inhibition at 0.03125 ppm", "setting": "[1]; Monographella nivalis, applied alone, rate 0.03125 ppm", "value": 0, "unit": "%"}, {"measurement": "inhibition at 0.0625 ppm", "setting": "[1]; Monographella nivalis, applied alone, rate 0.0625 ppm", "value": 0, "unit": "%"}, {"measurement": "inhibition at 0.125 ppm", "setting": "[1]; Monographella nivalis, applied alone, rate 0.125 ppm", "value": 0, "unit": "%"}, {"measurement": "inhibition at 0.25 ppm", "setting": "[1]; Monographella nivalis, applied alone, rate 0.25 ppm", "value": 0, "unit": "%"}, {"measurement": "inhibition at 0.0625 ppm", "setting": "Botrytis cinerea; Botrytis cinerea, alone, rate 0.0625 ppm, read-out: Activity (%)", "value": 0, "unit": "%"}, {"measurement": "inhibition at 0.125 ppm", "setting": "Botrytis cinerea; Botrytis cinerea, alone, rate 0.125 ppm", "value": 0, "unit": "%"}, {"measurement": "inhibition at 0.25 ppm", "setting": "Botrytis cinerea; [3]", "value": 0, "unit": "%"}, {"measurement": "inhibition at 0.5 ppm", "setting": "Botrytis cinerea; Botrytis cinerea, alone, rate 0.5 ppm", "value": 50, "unit": "%"}, {"measurement": "inhibition at 0.25 ppm", "setting": "Botrytis cinerea; Botrytis cinerea, single compound, rate 0.25 ppm", "value": 0, "unit": "%"}, {"measurement": "inhibition at 0.5 ppm", "setting": "Botrytis cinerea; Botrytis cinerea, single compound, rate 0.5 ppm", "value": 50, "unit": "%"}, {"measurement": "inhibition at 0.125 ppm", "setting": "Septoria tritici; Zymoseptoria tritici, 0.125 ppm", "value": 50, "unit": "%"}]}, {"compound": "COC(=O)N(OC)c1ccccc1COc1ccn(-c2ccc(Cl)cc2)n1", "note": "[Pyraclostrobin]", "values": [{"measurement": "inhibition at 0.0015625 ppm", "setting": "[1]; Monographella nivalis, applied alone, rate 0.0015625 ppm", "value": 0, "unit": "%"}, {"measurement": "inhibition at 0.003125 ppm", "setting": "[1]; Monographella nivalis, applied alone, rate 0.003125 ppm", "value": 0, "unit": "%"}, {"measurement": "inhibition at 0.00625 ppm", "setting": "[1]; Monographella nivalis, single compound, rate 0.00625 ppm", "value": 0, "unit": "%"}, {"measurement": "inhibition at 0.0125 ppm", "setting": "[1]; Monographella nivalis, single compound, rate 0.0125 ppm", "value": 50, "unit": "%"}, {"measurement": "inhibition at 0.025 ppm", "setting": "Botrytis cinerea; Botrytis cinerea, alone, rate 0.025 ppm", "value": 0, "unit": "%"}, {"measurement": "inhibition at 0.05 ppm", "setting": "Botrytis cinerea; Botrytis cinerea, alone, rate 0.05 ppm", "value": 0, "unit": "%"}, {"measurement": "inhibition at 0.1 ppm", "setting": "Botrytis cinerea; Botrytis cinerea, alone, rate 0.1 ppm", "value": 0, "unit": "%"}, {"measurement": "inhibition at 0.2 ppm", "setting": "Botrytis cinerea; Botrytis cinerea, alone, rate 0.2 ppm", "value": 20, "unit": "%"}, {"measurement": "inhibition at 0.25 ppm", "setting": "Botrytis cinerea; [3]", "value": 50, "unit": "%"}, {"measurement": "inhibition at 2 ppm", "setting": "Botrytis cinerea; Botrytis cinerea, alone, rate 2 ppm", "value": 70, "unit": "%"}]}, {"compound": "Cn1cc(C(=O)Nc2ccccc2C2CC2C2CC2)c(C(F)F)n1", "note": "(stereo not shown) [Sedaxan]", "values": [{"measurement": "Activity (%)", "setting": "[2]; 0.00390625 ppm", "value": 0, "unit": "%"}, {"measurement": "Activity (%)", "setting": "[2]; 0.015625 ppm", "value": 0, "unit": "%"}, {"measurement": "Activity (%)", "setting": "[2]; 0.03125 ppm", "value": 0, "unit": "%"}, {"measurement": "Activity (%)", "setting": "[2]; 0.0625 ppm", "value": 0, "unit": "%"}, {"measurement": "Activity (%)", "setting": "[2]; 0.125 ppm", "value": 0, "unit": "%"}]}, {"compound": "CN1COCN(Cc2cnc(Cl)s2)/C1=N\\[N+](=O)[O-]", "note": "[Thiamethoxam]", "values": [{"measurement": "inhibition at 0.3125 ppm", "setting": "[1]; [4]", "value": 0, "unit": "%"}, {"measurement": "inhibition at 0.625 ppm", "setting": "[1]; [5]", "value": 0, "unit": "%"}, {"measurement": "inhibition at 2.5 ppm", "setting": "[1]; [6]", "value": 0, "unit": "%"}, {"measurement": "inhibition at 5 ppm", "setting": "[1]; Monographella nivalis, applied alone, rate 5 ppm", "value": 0, "unit": "%"}, {"measurement": "inhibition at 0.625 ppm", "setting": "Botrytis cinerea; Botrytis cinerea, alone, rate 0.625 ppm", "value": 0, "unit": "%"}, {"measurement": "inhibition at 1.25 ppm", "setting": "Botrytis cinerea; [7]", "value": 0, "unit": "%"}, {"measurement": "inhibition at 2.5 ppm", "setting": "Botrytis cinerea; [8]", "value": 0, "unit": "%"}]}, {"compound": "CCOC(=O)C1CC(=O)C(=C(O)C2CC2)C(=O)C1", "note": "(stereo not shown) [Trinexapacethyl]", "values": [{"measurement": "inhibition at 0.625 ppm", "setting": "[1]; Monographella nivalis, applied alone, 0.625 ppm", "value": 0, "unit": "%"}, {"measurement": "inhibition at 1.25 ppm", "setting": "[1]; Monographella nivalis, applied alone, 1.25 ppm", "value": 0, "unit": "%"}, {"measurement": "inhibition at 2.5 ppm", "setting": "[1]; Monographella nivalis, applied alone, 2.5 ppm", "value": 0, "unit": "%"}, {"measurement": "inhibition at 5 ppm", "setting": "[1]; Monographella nivalis, applied alone, 5 ppm", "value": 0, "unit": "%"}, {"measurement": "inhibition at 0.12625 ppm", "setting": "[1]; Monographella nivalis, applied alone, rate 0.12625 ppm", "value": 0, "unit": "%"}, {"measurement": "inhibition at 0.3125 ppm", "setting": "[1]; [4]", "value": 0, "unit": "%"}, {"measurement": "inhibition at 0.625 ppm", "setting": "[1]; [5]", "value": 0, "unit": "%"}, {"measurement": "inhibition at 1.25 ppm", "setting": "[1]; Monographella nivalis, applied alone, rate 1.25 ppm", "value": 0, "unit": "%"}, {"measurement": "inhibition at 2.5 ppm", "setting": "[1]; [6]", "value": 0, "unit": "%"}, {"measurement": "inhibition at 1.25 ppm", "setting": "Botrytis cinerea; [7]", "value": 0, "unit": "%"}, {"measurement": "inhibition at 2.5 ppm", "setting": "Botrytis cinerea; [8]", "value": 0, "unit": "%"}, {"measurement": "inhibition at 5 ppm", "setting": "Botrytis cinerea; Botrytis cinerea, alone, rate 5 ppm, read-out: Activity (%)", "value": 0, "unit": "%"}, {"measurement": "inhibition at 10 ppm", "setting": "Botrytis cinerea; Botrytis cinerea, alone, rate 10 ppm, read-out: Activity (%)", "value": 0, "unit": "%"}, {"measurement": "inhibition at 20 ppm", "setting": "Botrytis cinerea; Botrytis cinerea, alone, rate 20 ppm, read-out: Activity (%)", "value": 0, "unit": "%"}]}, {"compound": "CC/C=C\\CC1=C(C)CCC1=O", "note": "[cis-Jasmone]", "values": [{"measurement": "Activity (%)", "setting": "[1]; applied alone, 0.625 ppm", "value": 0, "unit": "%"}, {"measurement": "Activity (%)", "setting": "[1]; applied alone, 1.25 ppm", "value": 0, "unit": "%"}, {"measurement": "Activity (%)", "setting": "[1]; applied alone, 2.5 ppm", "value": 0, "unit": "%"}, {"measurement": "Activity (%)", "setting": "[1]; applied alone, 5 ppm", "value": 0, "unit": "%"}, {"measurement": "Activity (%)", "setting": "[1]; [9]", "value": 0, "unit": "%"}, {"measurement": "Activity (%)", "setting": "[1]; applied alone, rate 0.3125 ppm", "value": 0, "unit": "%"}, {"measurement": "Activity (%)", "setting": "[1]; applied alone, rate 0.625 ppm", "value": 0, "unit": "%"}, {"measurement": "Activity (%)", "setting": "[1]; applied alone, rate 1.25 ppm", "value": 0, "unit": "%"}, {"measurement": "Activity (%)", "setting": "Botrytis cinerea; alone, rate 0.625 ppm", "value": 0, "unit": "%"}, {"measurement": "Activity (%)", "setting": "Botrytis cinerea; alone, rate 1.25 ppm", "value": 0, "unit": "%"}, {"measurement": "Activity (%)", "setting": "Botrytis cinerea; alone, rate 2.5 ppm", "value": 0, "unit": "%"}, {"measurement": "Activity (%)", "setting": "Botrytis cinerea; alone, rate 5 ppm", "value": 0, "unit": "%"}]}, {"compound": "Abamectin", "values": [{"measurement": "Activity (%)", "setting": "[1]; applied alone, 5 ppm", "value": 0, "unit": "%"}, {"measurement": "Activity (%)", "setting": "[1]; applied alone, 10 ppm", "value": 0, "unit": "%"}, {"measurement": "Activity (%)", "setting": "[1]; applied alone, 20 ppm", "value": 50, "unit": "%"}, {"measurement": "Activity (%)", "setting": "[1]; [9]", "value": 0, "unit": "%"}, {"measurement": "Activity (%)", "setting": "[1]; applied alone, rate 0.3125 ppm", "value": 0, "unit": "%"}, {"measurement": "Activity (%)", "setting": "[1]; applied alone, rate 0.625 ppm", "value": 0, "unit": "%"}, {"measurement": "Activity (%)", "setting": "[1]; applied alone, rate 1.25 ppm", "value": 0, "unit": "%"}, {"measurement": "Activity (%)", "setting": "[1]; applied alone, rate 2.5 ppm", "value": 0, "unit": "%"}, {"measurement": "Activity (%)", "setting": "Botrytis cinerea; alone, rate 1.25 ppm", "value": 0, "unit": "%"}, {"measurement": "Activity (%)", "setting": "Botrytis cinerea; alone, rate 2.5 ppm", "value": 0, "unit": "%"}, {"measurement": "Activity (%)", "setting": "Botrytis cinerea; alone, rate 5 ppm", "value": 0, "unit": "%"}, {"measurement": "Activity (%)", "setting": "Botrytis cinerea; alone, rate 10 ppm", "value": 0, "unit": "%"}, {"measurement": "Activity (%)", "setting": "Botrytis cinerea; alone, rate 20 ppm", "value": 0, "unit": "%"}]}]}
